Reference: patent US12325695B2, “5-(4-pyridyloxy)pyrazole compounds serving as TGF-βR1 kinase inhibitor” (JIANGSU AOSAIKANG PHARMACEUTICAL CO., LTD., priority 2019, dated 2025)
pIC50: −log10 of the molar value. Blank lines part the entries; values can stand above or below the compound they belong to.

What was measured:
pSmad = assay: Inhibitory activity assay on Smad phosphorylation (HEK-Blue-TGFβ cells, Quanti-Blue readout); format: cell-based; conditions: TGFβ stimulation, 24 hours, read-out: pSmad inhibition IC50
Description: Experimental Embodiment 1: Inhibitory Activity Assay on Smad Phosphorylation
Both HEK-Blue-TGFβ cells and Quanti-Blue reagent were purchased from Invivogen Company. TGFβ was purchased from PeproTech.
The compounds to be tested were diluted 5 times with a row gun to the 8th concentration, that is, diluted from 1 mmol/L to 12.8 nmol/L, the final concentration of dimethyl sulfoxide was 100%, and a double hole experiment was set up. 2 μL of inhibitors of each concentration gradient, 18 μL of TGFβ (20 ng/mL), and 180 μL of cell suspension (140,000 cells/mL) were added to the microplate. At this time, the final concentration gradient of the compound was […] diluted to 0.13 nmol/L. The cell plate was placed at 37° C. in a 5% CO2 incubator for 24 hours. After the reaction was completed, 40 μL of cell culture supernatant was taken out from each well to a new transparent microtiter plate, 160 μL of Quanti-Blue reagent was added to each well, and then the reaction was carried out at 37° C. for 60 minutes. After the reaction was completed, the PerkinElmer Envision multi-label analyzer was used to read the absorption light at 630 nm.
The original data was converted into the inhibition rate, and the IC50 value can be obtained by curve fitting with four parameters.

[1] = test system: mouse colon cancer CT-26 cells; assay: Anti-tumor drug efficacy study, mouse colon cancer CT-26 cell BALB/c mouse subcutaneous allograft tumor model; format: in vivo, BALB/c mice; conditions: 50 mg/kg, twice a day, oral
Description: (§1) Experimental Embodiment 3: Anti-Tumor Drug Efficacy Study of Mouse Colon Cancer CT-26 Cell BALB/c Mouse Subcutaneous Allograft Tumor Model In Vivo
The main purpose of this study is to study the anti-tumor drug efficacy of the tested compounds on the CT26 mouse allograft tumor model.
(§2) Cell culture: mouse colon cancer CT-26 cells were cultured in monolayer in vitro, and the culture conditions were RPMI-1640 medium with 10% fetal bovine serum, 37° C. and 5% carbon dioxide incubator. Trypsin-ethylenediaminetetraacetic acid (EDTA) was used for routine digestion and passage twice a week. When the cell saturation was 80%-90% and the number reached the requirement, the cells were collected, counted, and inoculated.
(§3) Animals: BALB/c mice, female, 6-8 weeks old.
(§4) Tumor inoculation: 0.1 mL of DPBS cell suspension containing 3×10^5 CT26 cells was subcutaneously inoculated into the right groin of each mouse, and administration was started on the day of inoculation.
Experimental index: The experimental index was to investigate whether the tumor growth was inhibited, delayed or cured. The tumor diameter was measured with a vernier caliper twice a week. The calculation formula for tumor volume is: V=0.5 L×W^2, where L and W refer to the long diameter and short diameter of the tumor, respectively.

[2] = Pharmacokinetics study of cassette drug administration in vivo; parameters: species or system CD-1 male mice; conditions: male, mouse, plasma, CD-1 mice; for Vd: read-out: Vdss; for bioavailability: oral (1.5 mg/kg) vs injection (1 mg/kg), read-out: F (bioavailability)
Description: Experimental Embodiment 2: Pharmacokinetics Study of Cassette Drug Administration in Vivo
The purpose of this experiment is to evaluate the pharmacokinetic behavior of the compound after a single intravenous injection and intragastric administration, and to investigate the bioavailability after intragastric administration.
CD-1 male mice aged from 7 to 10 weeks were selected, and the doses for intravenous and oral administration were 1 mg/kg and 1.5 mg/kg, respectively. The mice were fasted for at least 12 hours before the administration, and resumed feeding 4 hours after the administration. The mice were free to drink during the entire experiment.
(§5) On the day of the experiment, animals in the intravenous group were given a single injection of the corresponding compound through the tail vein with a volume of 5 mL/kg; the oral group was given the corresponding compound by a single gavage with a volume of 5 mL/kg. The animals were weighed before administration, and the administration volume was calculated according to the body weight. Sample collection time: 0.083 hours, 0.25 hours, 0.5 hours, 1 hour, 2 hours, 4 hours, 8 hours, 24 hours in the injection group; 0.25 hours, 0.5 hours, 1 hour, 2 hours, 4 hours, 6 hours, 8 hours, 24 hours in the gavage group. Approximately 30 μL of whole blood was collected through the saphenous vein at each time point to prepare plasma for high-performance liquid chromatography-tandem mass spectrometry (LC-MS/MS) for concentration determination. All animals were euthanized by CO2 anesthesia after collecting PK samples at the last time point. The non-compartmental model of WinNonlin™ Version 6.3 (Pharsight, Mountain View, CA) pharmacokinetic software was used to process the plasma concentration, and the pharmacokinetic parameters were calculated using the linear and logarithmic trapezoidal method.

[3] = Drug concentration in tumor tissue and plasma AUC in the CT26 tumor model study; format: in vivo, BALB/c mice; conditions: 50 mg/kg, twice a day, oral; for AUC: female, BALB/c, mouse, plasma
Description: as §1, §2, §3, §4

[4] = Pharmacokinetic studies in vivo (single compound); parameters: species or system CD-1 male mice; conditions: CD-1 mice; for AUC(0-t) / clearance / half-life / Vd / Cmax / Tmax: male, mouse, plasma; for Vd: read-out: Vdss
Description: Experiment 4: Pharmacokinetic Studies In Vivo
The purpose of this experiment is to evaluate the pharmacokinetic behavior of the compounds after a single intravenous injection and intragastric administration, and to investigate the bioavailability after intragastric administration.
[…] The mice were fasted for at least 12 hours before the administration, and resumed feeding 4 hours after the administration. The mice were free to drink during the entire experiment.
as §5, with “volume of 10 mL/kg. The” for “volume of 5 mL/kg. The”, “the injection group, 0.25 hours,” for “the injection group; 0.25 hours,”

Structure (SMILES): Cc1cccc(-n2nc(C)cc2Oc2ccnc(Nc3cccc(C(N)=O)c3)c2)c1 [Compound 1]
- pIC50 (pSmad): 7.18

Structure (SMILES): Cc1cccc(-n2nccc2Oc2ccnc(Nc3cccc(C(N)=O)c3)c2)n1 [Compound 2]
- pIC50 (pSmad): 6.61

Structure (SMILES): Cc1cccc(-n2nc3c(c2Oc2ccnc(Nc4cccc(C(N)=O)c4)c2)CCCC3)n1 [Compound 3]
- pIC50 (pSmad): 7.27

Structure (SMILES): CCc1cc(Oc2ccnc(Nc3cccc(C(N)=O)c3)c2)n(-c2cccc(C)n2)n1 [Compound 4]
- pIC50 (pSmad): 7.27

Structure (SMILES): Cc1cccc(-n2nc(C)cc2Oc2ccnc(Nc3cnn(CC(C)C)c3)c2)n1 [Compound 7]
- pIC50 (pSmad): 6.45

Structure (SMILES): Cc1cccc(-n2nc(C)cc2Oc2ccnc(Nc3cnccn3)c2)n1 [Compound 8]
- pIC50 (pSmad): 6.17

Structure (SMILES): COc1cccc(-n2nc(C)cc2Oc2ccnc(Nc3cccc(C(N)=O)c3)c2)n1 [Compound 12]
- pIC50 (pSmad): 6.36

Structure (SMILES): NC(=O)c1cccc(Nc2cc(Oc3c4c(nn3C3CCOCC3)CCCC4)ccn2)c1 [Compound 17]
- pIC50 (pSmad): 6.21

Structure (SMILES): NC(=O)c1cccc(Nc2cc(Oc3cc(C4CC4)nn3C3CCOCC3)ccn2)c1 [Trifluoroacetate of compound 18]
- pIC50 (pSmad): 6.55

Further lines, with some results ahead:

- pIC50 (pSmad): 6.36
Structure (SMILES): Cc1cccc(-n2nc(C)cc2Oc2ccnc(Nc3cnn(CC(C)(C)O)c3)c2)n1 [Compound 5]

- pIC50 (pSmad): 7.10
- AUC(0-t) ([2]; iv, injection (1 mg/kg)): 1810 nM·h
- clearance ([2]; iv, injection (1 mg/kg)): 1.49 L/h/kg
- half-life ([2]; iv, injection (1 mg/kg)): 1.32 h
- Vd ([2]; iv, injection (1 mg/kg)): 1.05 L/kg
- bioavailability [2]: 54.6%
- AUC(0-t) ([2]; oral (1.5 mg/kg)): 1450 nM·h
- Cmax ([2]; oral (1.5 mg/kg)): 0.804 µM
- Tmax ([2]; oral (1.5 mg/kg)): 0.25 h
- half-life ([2]; oral (1.5 mg/kg)): 2.84 h
Structure (SMILES): Cc1cccc(-n2nc(C)cc2Oc2ccnc(Nc3cccc(C(N)=O)c3)c2)n1 [Compound 6]
- % Inhibitory rate on Day 29 [1]: 73%
- Mean tumor volume Day 29 [1]: 601.7 mm^3

- pIC50 (pSmad): 6.57
Structure (SMILES): Cc1cccc(-n2nc(C)cc2Oc2ccnc(Nc3ccnc(C(C)(C)O)c3)c2)n1 [Compound 9]

- pIC50 (pSmad): 6.45
Structure (SMILES): Cc1cccc(-n2nc(C)cc2Oc2ccnc(Nc3cnn(CCO)c3)c2)n1 [Compound 10]

- pIC50 (pSmad): 6.72
Structure (SMILES): Cc1cccc(-n2nc(C)cc2Oc2ccnc(Nc3ccn(CC(C)(C)O)n3)c2)n1 [Compound 11]

- pIC50 (pSmad): 7.22
Structure (SMILES): Cc1cccc(-n2nc3c(c2Oc2ccnc(Nc4cccc(C(N)=O)c4)c2)CCC3)n1 [Compound 13]

- pIC50 (pSmad): 6.47
- Drug concentration in tumor tissue 1 hour after administration [3]: 11318 nmol/kg
- Drug concentration in tumor tissue 12 hours after administration [3]: 820 nmol/kg
- AUC [3]: 30100 nM·h
- AUC(0-t) ([4]; iv, injection, 1 mg/kg): 1340 nM·h
- clearance ([4]; iv, injection, 1 mg/kg): 1.89 L/h/kg
- half-life ([4]; iv, injection, 1 mg/kg): 1.17 h
- Vd ([4]; iv, injection, 1 mg/kg): 1.64 L/kg
- AUC(0-t) ([4]; oral, 2.5 mg/kg): 2700 nM·h
- Cmax ([4]; oral, 2.5 mg/kg): 1.56 µM
- Tmax ([4]; oral, 2.5 mg/kg): 0.5 h
- half-life ([4]; oral, 2.5 mg/kg): 1.15 h
- F ([4]; oral 2.5 mg/kg vs injection 1 mg/kg): 80.9%
- AUC(0-t) ([2]; iv, injection (1 mg/kg)): 1060 nM·h
- clearance ([2]; iv, injection (1 mg/kg)): 2.22 L/h/kg
- half-life ([2]; iv, injection (1 mg/kg)): 1.37 h
- Vd ([2]; iv, injection (1 mg/kg)): 2.39 L/kg
- bioavailability [2]: 75.9%
- AUC(0-t) ([2]; oral (1.5 mg/kg)): 1160 nM·h
- Cmax ([2]; oral (1.5 mg/kg)): 0.567 µM
- Tmax ([2]; oral (1.5 mg/kg)): 0.25 h
- half-life ([2]; oral (1.5 mg/kg)): 1.61 h
Structure (SMILES): Cc1cc(Oc2ccnc(Nc3cccc(C(N)=O)c3)c2)n(C2CCOCC2)n1 [Compound 14]
- % Inhibitory rate on Day 29 [1]: 81%
- Mean tumor volume Day 29 [1]: 424.78 mm^3

- pIC50 (pSmad): 6.38
Structure (SMILES): Cc1nn(C2CCOCC2)c(Oc2ccnc(Nc3cccc(C(N)=O)c3)c2)c1C [Compound 15]

- pIC50 (pSmad): 6.78
Structure (SMILES): NC(=O)c1cccc(Nc2cc(Oc3c4c(nn3C3CCOCC3)CCC4)ccn2)c1 [Compound 16]

- pIC50 (pSmad): 6.23
Structure (SMILES): CC(C)c1cc(Oc2ccnc(Nc3cccc(C(N)=O)c3)c2)n(C2CCOCC2)n1 [Compound 19]

- Drug concentration in tumor tissue 1 hour after administration [3]: 988 nmol/kg
- Drug concentration in tumor tissue 12 hours after administration [3]: 180 nmol/kg
- AUC [3]: 6170 nM·h
- AUC(0-t) ([4]; iv, injection, 1 mg/kg): 814 nM·h
- clearance ([4]; iv, injection, 1 mg/kg): 3.36 L/h/kg
- half-life ([4]; iv, injection, 1 mg/kg): 0.45 h
- Vd ([4]; iv, injection, 1 mg/kg): 1.31 L/kg
- AUC(0-t) ([4]; oral, 5 mg/kg): 1370 nM·h
- Cmax ([4]; oral, 5 mg/kg): 1.84 µM
- Tmax ([4]; oral, 5 mg/kg): 0.25 h
- half-life ([4]; oral, 5 mg/kg): 1.1 h
- F ([4]; oral 5 mg/kg vs injection 1 mg/kg): 33.5%
- AUC(0-t) ([2]; iv, injection (1 mg/kg)): 1150 nM·h
- clearance ([2]; iv, injection (1 mg/kg)): 2.24 L/h/kg
- half-life ([2]; iv, injection (1 mg/kg)): 0.477 h
- Vd ([2]; iv, injection (1 mg/kg)): 0.679 L/kg
- bioavailability [2]: 34.9%
- AUC(0-t) ([2]; oral (1.5 mg/kg)): 586 nM·h
- Cmax ([2]; oral (1.5 mg/kg)): 0.712 µM
- Tmax ([2]; oral (1.5 mg/kg)): 0.25 h
- half-life ([2]; oral (1.5 mg/kg)): 1.45 h
Structure (SMILES): Cc1cccc(-c2nn3c(c2-c2ccnc4ccc(C(N)=O)cc24)CCC3)n1 [Compound A, Galunisertib, reference compound]
- % Inhibitory rate on Day 29 [1]: 66%
- Mean tumor volume Day 29 [1]: 758.19 mm^3
